Measured values taken from the supplement of paper PMC10883282.
± gives the standard deviation of the averaged measurements.

Legend:
Assay in all cases: relative viability vs DMSO control (72 h) (fraction); higher = more viable cells
A204 = tested on: A204
In short: (§1)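 Densities for seeding sarcoma cell lines into 384-well plates were set to give 80–90% confluence. After 24 h, 2.5 µl of serially diluted compound from source plates of 10 mM to 0.0002 mM went in, and plates stayed 72 h at 37 °C in 5% CO2 with 0.1% DMSO vehicle and a 5 µM positive control. Percent growth from ATPLite readings, averaged over up to triplicate wells, served as relative viability, rescaled so 1 means full and 0 means none.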

G401 = tested on: G401
In short: as §1

HS729 = tested on: HS729
In short: as §1

KHOS-240S = tested on: KHOS-240S
In short: as §1

MES-SA = tested on: MES-SA
In short: as §1

RD = tested on: RD
In short: as §1

SK-ES-1 = tested on: SK-ES-1
In short: as §1

SK-LMS-1 = tested on: SK-LMS-1
In short: as §1

SW1353 = tested on: SW1353
In short: as §1

SW872 = tested on: SW872
In short: as §1

SW982 = tested on: SW982
In short: as §1

VA-ES-BJ = tested on: VA-ES-BJ
In short: as §1

C#Cc1cccc(Nc2ncnc3cc4c(cc23)OCCOCCOCCO4)c1 [Icotinib]
Details	relative viability
A204, 0.00017 µM	1.07 ± 0.086
A204, 0.00051 µM	1.08 ± 0.035
A204, 0.00152 µM	1.11 ± 0.051
A204, 0.00457 µM	1.13 ± 0.024
A204, 0.01372 µM	1.071 ± 0.0034
A204, 0.04115 µM	1.12 ± 0.038
A204, 0.1235 µM	1.09 ± 0.078
A204, 0.3704 µM	1.07 ± 0.063
A204, 1.111 µM	0.967 ± 0.024
A204, 3.333 µM	0.947 ± 0.039
A204, 10 µM	0.877 ± 0.047
G401, 0.00017 µM	1.04 ± 0.026
G401, 0.00051 µM	1.05 ± 0.014
G401, 0.00152 µM	1.04 ± 0.015
G401, 0.00457 µM	1.06 ± 0.024
G401, 0.01372 µM	1.05 ± 0.02
G401, 0.04115 µM	1.05 ± 0.04
G401, 0.1235 µM	1.02 ± 0.012
G401, 0.3704 µM	1.04 ± 0.03
G401, 1.111 µM	1.06 ± 0.019
G401, 3.333 µM	1.03 ± 0.028
G401, 10 µM	1.02 ± 0.046
HS729, 0.00017 µM	1.08 ± 0.04
HS729, 0.00051 µM	1.091 ± 0.003
HS729, 0.00152 µM	1.01 ± 0.041
HS729, 0.00457 µM	1 ± 0.043
HS729, 0.01372 µM	0.99 ± 0.05
HS729, 0.04115 µM	0.99 ± 0.077
HS729, 0.1235 µM	0.97 ± 0.016
HS729, 0.3704 µM	0.971 ± 0.039
HS729, 1.111 µM	0.957 ± 0.05
HS729, 3.333 µM	0.892 ± 0.022
HS729, 10 µM	0.8227 ± 0.0041
KHOS-240S, 0.00017 µM	1.07 ± 0.054
KHOS-240S, 0.00051 µM	1.1 ± 0.07
KHOS-240S, 0.00152 µM	1.1 ± 0.064
KHOS-240S, 0.00457 µM	1.1 ± 0.067
KHOS-240S, 0.01372 µM	1.1 ± 0.058
KHOS-240S, 0.04115 µM	1.09 ± 0.034
KHOS-240S, 0.1235 µM	1.1 ± 0.048
KHOS-240S, 0.3704 µM	1.09 ± 0.054
KHOS-240S, 1.111 µM	1.09 ± 0.064
KHOS-240S, 3.333 µM	1.04 ± 0.062
KHOS-240S, 10 µM	1.03 ± 0.092
MES-SA, 0.00017 µM	0.972 ± 0.021
MES-SA, 0.00051 µM	0.945 ± 0.032
MES-SA, 0.00152 µM	0.958 ± 0.014
MES-SA, 0.00457 µM	0.937 ± 0.05
MES-SA, 0.01372 µM	0.936 ± 0.02
MES-SA, 0.04115 µM	0.952 ± 0.033
MES-SA, 0.1235 µM	0.952 ± 0.024
MES-SA, 0.3704 µM	0.922 ± 0.024
MES-SA, 1.111 µM	0.912 ± 0.027
MES-SA, 3.333 µM	0.869 ± 0.036
MES-SA, 10 µM	0.8 ± 0.038
RD, 0.00017 µM	1.09 ± 0.021
RD, 0.00051 µM	1.1 ± 0.055
RD, 0.00152 µM	1.13 ± 0.027
RD, 0.00457 µM	1.124 ± 0.0066
RD, 0.01372 µM	1.15 ± 0.036
RD, 0.04115 µM	1.08 ± 0.062
RD, 0.1235 µM	1.12 ± 0.029
RD, 0.3704 µM	1.15 ± 0.035
RD, 1.111 µM	1.1 ± 0.035
RD, 3.333 µM	1.15 ± 0.028
RD, 10 µM	1.14 ± 0.022
SK-ES-1, 0.00017 µM	1.03 ± 0.024
SK-ES-1, 0.00051 µM	1.06 ± 0.028
SK-ES-1, 0.00152 µM	1.06 ± 0.024
SK-ES-1, 0.00457 µM	1.01 ± 0.077
SK-ES-1, 0.01372 µM	1.073 ± 0.0071
SK-ES-1, 0.04115 µM	1.08 ± 0.026
SK-ES-1, 0.1235 µM	1.068 ± 0.0031
SK-ES-1, 0.3704 µM	1.07 ± 0.018
SK-ES-1, 1.111 µM	0.998 ± 0.035
SK-ES-1, 3.333 µM	1.01 ± 0.018
SK-ES-1, 10 µM	0.934 ± 0.032
SK-LMS-1, 0.00017 µM	1.08 ± 0.014
SK-LMS-1, 0.00051 µM	1.05 ± 0.044
SK-LMS-1, 0.00152 µM	1.07 ± 0.012
SK-LMS-1, 0.00457 µM	1.07 ± 0.032
SK-LMS-1, 0.01372 µM	1.07 ± 0.024
SK-LMS-1, 0.04115 µM	1.06 ± 0.075
SK-LMS-1, 0.1235 µM	1.04 ± 0.049
SK-LMS-1, 0.3704 µM	1.09 ± 0.081
SK-LMS-1, 1.111 µM	1.05 ± 0.051
SK-LMS-1, 3.333 µM	1.033 ± 0.0072
SK-LMS-1, 10 µM	0.998 ± 0.076
SW872, 0.00017 µM	1.14 ± 0.058
SW872, 0.00051 µM	1.14 ± 0.041
SW872, 0.00152 µM	1.11 ± 0.046
SW872, 0.00457 µM	1.108 ± 0.011
SW872, 0.01372 µM	1.11 ± 0.059
SW872, 0.04115 µM	1.09 ± 0.059
SW872, 0.1235 µM	1.08 ± 0.067
SW872, 0.3704 µM	1.07 ± 0.047
SW872, 1.111 µM	1.06 ± 0.041
SW872, 3.333 µM	1.04 ± 0.06
SW872, 10 µM	1.03 ± 0.064
SW982, 0.00017 µM	1.01 ± 0.022
SW982, 0.00051 µM	1.03 ± 0.021
SW982, 0.00152 µM	1.04 ± 0.015
SW982, 0.00457 µM	1.03 ± 0.025
SW982, 0.01372 µM	1.049 ± 0.0053
SW982, 0.04115 µM	1.06 ± 0.032
SW982, 0.1235 µM	1.06 ± 0.025
SW982, 0.3704 µM	1.05 ± 0.043
SW982, 1.111 µM	0.999 ± 0.03
SW982, 3.333 µM	0.9946 ± 0.0073
SW982, 10 µM	0.977 ± 0.046
SW1353, 0.00017 µM	1.06 ± 0.025
SW1353, 0.00051 µM	1.04 ± 0.016
SW1353, 0.00152 µM	1.03 ± 0.019
SW1353, 0.00457 µM	1.07 ± 0.044
SW1353, 0.01372 µM	1.045 ± 0.0071
SW1353, 0.04115 µM	1.01 ± 0.043
SW1353, 0.1235 µM	1.01 ± 0.038
SW1353, 0.3704 µM	0.976 ± 0.022
SW1353, 1.111 µM	0.952 ± 0.015
SW1353, 3.333 µM	0.914 ± 0.031
SW1353, 10 µM	0.847 ± 0.033
VA-ES-BJ, 0.00017 µM	1.09 ± 0.038
VA-ES-BJ, 0.00051 µM	1.1 ± 0.076
VA-ES-BJ, 0.00152 µM	1.1 ± 0.075
VA-ES-BJ, 0.00457 µM	1.06 ± 0.03
VA-ES-BJ, 0.01372 µM	1.08 ± 0.07
VA-ES-BJ, 0.04115 µM	1.07 ± 0.011
VA-ES-BJ, 0.1235 µM	1.08 ± 0.047
VA-ES-BJ, 0.3704 µM	1.08 ± 0.038
VA-ES-BJ, 1.111 µM	1.05 ± 0.0098
VA-ES-BJ, 3.333 µM	1.04 ± 0.025
VA-ES-BJ, 10 µM	1.01 ± 0.036
